From ChEMBL document CHEMBL3259794, “Towards the discovery of drug-like epigallocatechin gallate analogs as Hsp90 inhibitors” (Bioorg Med Chem Lett, 2014)

Molecular target: T1, Heat shock protein HSP 90-beta (Homo sapiens, UniProt P08238)
Assay: Inhibition of HSP90 (unknown origin) by luciferase refolding assay

T1 sequence (P08238 whole entry): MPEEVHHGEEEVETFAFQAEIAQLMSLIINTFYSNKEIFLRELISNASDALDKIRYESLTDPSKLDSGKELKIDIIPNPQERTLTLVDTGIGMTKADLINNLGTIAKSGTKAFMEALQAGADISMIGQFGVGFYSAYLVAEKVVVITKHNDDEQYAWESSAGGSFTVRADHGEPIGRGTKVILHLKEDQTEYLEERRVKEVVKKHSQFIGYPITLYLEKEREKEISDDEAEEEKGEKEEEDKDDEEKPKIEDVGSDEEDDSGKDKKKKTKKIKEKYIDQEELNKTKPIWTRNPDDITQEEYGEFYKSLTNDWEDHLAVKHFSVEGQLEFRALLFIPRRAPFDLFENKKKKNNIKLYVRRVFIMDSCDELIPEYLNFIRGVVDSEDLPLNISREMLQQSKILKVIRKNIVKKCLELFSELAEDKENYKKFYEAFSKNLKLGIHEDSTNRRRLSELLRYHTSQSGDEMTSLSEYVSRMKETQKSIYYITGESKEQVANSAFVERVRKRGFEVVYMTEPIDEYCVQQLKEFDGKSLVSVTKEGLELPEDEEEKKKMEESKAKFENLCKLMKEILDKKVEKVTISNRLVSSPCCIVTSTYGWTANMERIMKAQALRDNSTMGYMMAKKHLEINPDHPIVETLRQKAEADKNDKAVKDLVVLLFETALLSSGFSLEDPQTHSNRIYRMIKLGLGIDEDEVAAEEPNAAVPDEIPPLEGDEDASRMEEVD

`O=C(O[C@@H]1Cc2c(O)cc(O)cc2O[C@@H]1c1ccc(O)c(O)c1)C1CCCCC1` and `O=C(O[C@H]1Cc2c(O)cc(O)cc2O[C@@H]1c1ccc(O)c(O)c1)C1CCCCC1` are within 1.5-fold of each other in IC50: 81 µM for the first, 98 µM for the second.

Compared with `O=C(O[C@@H]1Cc2c(O)cc(O)cc2O[C@@H]1c1ccc(O)c(O)c1)C1CC1`, `O=C(O[C@@H]1Cc2c(O)cc(O)cc2O[C@@H]1c1ccc(O)c(O)c1)[C@H]1CC[C@H](F)CC1` is 5.9-fold lower in IC50: 410 µM for the first, 69 µM for the second.

First: O=C(O[C@@H]1Cc2c(O)cc(O)cc2O[C@@H]1c1cc(O)c(O)c(O)c1)c1cc(O)c(O)c(O)c1 [EPIGALOCATECHIN GALLATE]
Second: O=C(O[C@@H]1Cc2c(O)cc(O)cc2O[C@H]1c1cc(O)c(O)c(O)c1)c1cc(O)c(O)c(O)c1 [GALLOCATECHIN GALLATE]
The IC50 of the first is 4.6-fold higher: 155 µM for the first, 34 µM for the second.

Compared with `O=C(O[C@@H]1Cc2c(O)cc(O)cc2O[C@@H]1c1cc(O)c(O)c(O)c1)c1ccncc1`, `O=C(O[C@@H]1Cc2c(O)cc(O)cc2O[C@@H]1c1cc(O)c(O)c(O)c1)c1ccccc1` is 2.7-fold lower in IC50: 64 µM for the first, 24 µM for the second.

First: O=C(O[C@@H]1Cc2c(O)cc(O)cc2O[C@@H]1c1ccc(O)c(O)c1)[C@H]1CC[C@@H](F)CC1
Second: O=C(O[C@@H]1Cc2c(O)cc(O)cc2O[C@@H]1c1ccc(O)c(O)c1)[C@H]1CC[C@H](O)CC1
The IC50 of the first is 6.8-fold lower: 65 µM for the first, 440 µM for the second. The first is the more potent here.

First: O=C(O[C@@H]1Cc2c(O)cc(O)cc2O[C@@H]1c1cc(O)c(O)c(O)c1)C1CCCCC1
Second: O=C(O[C@@H]1Cc2c(O)cc(O)cc2O[C@@H]1c1ccc(O)c(O)c1)[C@H]1CC[C@@H](O)CC1
The IC50 of the first is 10-fold lower: 30 µM for the first, 310 µM for the second.

First: O=C(O[C@H]1Cc2c(O)cc(O)cc2O[C@@H]1c1ccccc1)c1ccccc1 (racemic)
Second: O=C(O[C@@H]1Cc2c(O)cc(O)cc2O[C@@H]1c1ccccc1)c1ccccc1 (racemic)
The IC50 of the first is 1.9-fold higher: 120 µM for the first, 63 µM for the second.

Going from `O=C(O[C@@H]1Cc2ccccc2O[C@@H]1c1ccccc1)c1cc(O)c(O)c(O)c1` (racemic) to `O=C(O[C@H]1Cc2c(O)cc(O)cc2O[C@@H]1c1ccccc1)c1cc(O)c(O)c(O)c1` (racemic), the IC50 rises from 35 µM to 150 µM (4.3-fold).

`O=C(O[C@@H]1Cc2c(O)cc(O)cc2O[C@@H]1c1cc(O)c(O)c(O)c1)c1ccc(F)c(F)c1` and `O=C(O[C@@H]1Cc2c(O)cc(O)cc2O[C@@H]1c1cc(O)c(O)c(O)c1)c1ccc(F)cc1` are within 1.5-fold of each other in IC50: 58 µM for the first, 41 µM for the second.

`O=C(O[C@H]1Cc2c(O)cc(O)cc2O[C@@H]1c1ccc(O)c(O)c1)c1ccccc1` and `O=C(N[C@@H]1Cc2c(O)cc(O)cc2O[C@@H]1c1cc(O)c(O)c(O)c1)c1ccccc1` are within 1.5-fold of each other in IC50: 110 µM for the first, 75 µM for the second.

Compared with `O=S(=O)(N[C@@H]1Cc2c(O)cc(O)cc2O[C@@H]1c1cc(O)c(O)c(O)c1)c1ccccc1`, `O=C(O[C@H]1Cc2c(O)cc(O)cc2O[C@@H]1c1ccc(O)c(O)c1)[C@H]1CC[C@@H](O)CC1` is 6.4-fold higher in IC50: 44 µM for the first, 280 µM for the second. The first is the more potent here.

Molecular target: T1, Heat shock protein HSP 90-beta
Assay: Ratio of EGCG IC50 to compound IC50 for HSP90 (unknown origin)

`O=S(=O)(N[C@@H]1Cc2c(O)cc(O)cc2O[C@@H]1c1cc(O)c(O)c(O)c1)c1ccccc1` showed a Ratio IC50 of 3.
